What was measured:
[1] = GC retention time (DB-5MS, GC-APCI); higher = later elution
Protocol: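 Standards of hydrophobic organic contaminants were analysed by GC-APCI (positive mode, dry or wet source conditions) coupled to cyclic ion mobility-QTOF MS. CCS was measured for the base ion (sometimes a fragment ion) in N2 drift gas (one-pass mode, calibrated with a Waters 22-compound mix). 5 mL/min).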

[2] = collision cross section (N2, base ion); higher = larger ion cross section
Protocol: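 Standards of hydrophobic organic contaminants were analysed by GC-APCI (positive mode, dry or wet source conditions) coupled to cyclic ion mobility-QTOF MS. CCS was measured for the base ion (sometimes a fragment ion) in N2 drift gas (one-pass mode, calibrated with a Waters 22-compound mix).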

Compound | GC retention time [1] [min] | collision cross section [2] [Å²]
CCCCCCCCCCCCCCCCC(F)(F)C(F)(F)C(F)(F)C(F)(F)C(F)(F)C(F)(F)C(F)(F)C(F)(F)F [1-(Perfluoro-n-octyl)hexadecane] (APCI source condition: Dry, base ion: [M-H]+) | 16.8 | 226.94
CCCCCCCCCCCCCCCCC(F)(F)C(F)(F)C(F)(F)C(F)(F)C(F)(F)C(F)(F)C(F)(F)C(F)(F)C(F)(F)C(F)(F)C(F)(F)C(F)(F)F [1-(Perfluorododecyl)hexadecane] (APCI source condition: Dry, base ion: [M-H]+) | 18.4 | 256.66
Clc1cc(-c2ccccc2)c(Cl)c(Cl)c1Cl [PCB 61] (APCI source condition: Dry, base ion: M+.) | 18.3 | 148.05
Clc1ccc(C(c2ccccc2Cl)C(Cl)Cl)cc1 (stereo not drawn) [2,4'-DDD] (APCI source condition: Dry, base ion: [M-CHCl2]+) | 19.4 | 140.45
Clc1ccc(C(c2ccc(Cl)cc2)C(Cl)Cl)cc1 [4,4'-DDD] (APCI source condition: Dry, base ion: [M-CHCl2]+) | 20.1 | 142.2
Clc1ccc(-c2ccccc2)cc1 [PCB 3] (APCI source condition: Dry, base ion: M+.) | 13.2 | 137.62
O=P(Oc1ccccc1)(Oc1ccccc1)Oc1ccccc1 [Triphenylphosphate] (APCI source condition: Wet, base ion: [M+H]+) | 21.1 | 168.91
Cc1c(Br)c(Br)c(Br)c(Br)c1Br [Pentabromotoluene] (APCI source condition: Dry, base ion: M+.) | 20.1 | 140.29
Brc1cc(Br)c(Oc2cc(Br)c(Br)c(Br)c2Br)c(Br)c1 [PBDE 182] (APCI source condition: Dry, base ion: M+.) | 28.4 | 185.51
c1ccc2c(c1)cc1ccc3cccc4ccc2c1c34 [Benzo(a)pyrene] (APCI source condition: Dry, base ion: M+.) | 24.8 | 143.28
c1ccc2c(c1)-c1cccc3cccc-2c13 [Fluoranthene] (APCI source condition: Dry, base ion: M+.) | 18.4 | 138.02
c1ccc2c(c1)-c1cccc3c1c-2cc1ccccc13 [Benzo(b)fluoranthene] (APCI source condition: Dry, base ion: M+.) | 24.2 | 145.46
Brc1cccc(Oc2c(Br)c(Br)c(Br)c(Br)c2Br)c1Br [PBDE 173] (APCI source condition: Dry, base ion: M+.) | 30.2 | 185.08
Clc1ccc(Cl)c(-c2c(Cl)c(Cl)c(Cl)c(Cl)c2Cl)c1Cl [PCB 200] (APCI source condition: Dry, base ion: M+.) | 22.2 | 167.33
Brc1ccc(Oc2c(Br)cc(Br)cc2Br)c(Br)c1 [PBDE 100] (APCI source condition: Dry, base ion: M+.) | 23.7 | 169.85
ClC1C(Cl)C(Cl)C(Cl)C(Cl)C1Cl (stereo not drawn) [α-Hexachlorocyclohexane] (APCI source condition: Dry, base ion: [M-H2Cl3]+) | 14.5 | 137.25
c1ccc2c(c1)ccc1c3ccccc3ccc21 [Chrysene] (APCI source condition: Dry, base ion: M+.) | 21.9 | 141.28
Clc1cc(Cl)c(-c2ccc(Cl)c(Cl)c2Cl)cc1Cl [PCB 138] (APCI source condition: Dry, base ion: M+.) | 20.8 | 159.68
CCCCC(CC)COP(=O)(Oc1ccccc1)Oc1ccccc1 (stereo not drawn) [2-Ethylhexyl diphenyl phosphate] (APCI source condition: Wet, base ion: [M-C8H15]+) | 21.3 | 149.25
CCCCCCCCCCCCCCCCC(F)(F)C(F)(F)C(F)(F)C(F)(F)C(F)(F)C(F)(F)C(F)(F)C(F)(F)C(F)(F)C(F)(F)F [1-(Henicosafluorodecyl)hexadecane] (APCI source condition: Dry, base ion: [M-H]+) | 17.6 | 241.65
CCCCCCOP(=O)(OCCCCCC)OCCCCCC [Trihexyl phosphate] (APCI source condition: Wet, base ion: [M+H]+) | 19.4 | 201

Compound | GC retention time [1] [min] | collision cross section [2] [Å²]
Clc1c(Cl)c(Cl)c(Cl)c(Cl)c1Cl [Hexachlorobenzene] (APCI source condition: Dry, base ion: M+.) | 14.6 | 135.29
O=P(OC(CCl)CCl)(OC(CCl)CCl)OC(CCl)CCl [Tris(1,3-dichloropropan-2-yl) phosphate] (APCI source condition: Wet, base ion: [M+H]+) | 20.4 | 175.08
Clc1cc(Cl)c(-c2cc(Cl)c(Cl)cc2Cl)cc1Cl [PCB 153] (APCI source condition: Dry, base ion: M+.) | 20.3 | 161.05
c1ccc2c(c1)ccc1ccccc12 [Phenanthrene] (APCI source condition: Dry, base ion: M+.) | 15.6 | 137.89
Brc1ccc(Oc2cc(Br)ccc2Br)c(Br)c1 [PBDE 49] (APCI source condition: Dry, base ion: M+.) | 21.8 | 163.07
ClC1=C(Cl)[C@]2(Cl)[C@@H]3[C@@H]4C[C@@H]([C@H]5O[C@@H]45)[C@@H]3[C@@]1(Cl)C2(Cl)Cl [Dieldrin] (APCI source condition: Dry, base ion: M+.) | 19.8 | 151.16
Clc1ccc(Cl)c(-c2cc(Cl)c(Cl)cc2Cl)c1 [PCB 101] (APCI source condition: Dry, base ion: M+.) | 18.8 | 155.45
CCCCCCCCCCCCCCC=CC(F)(F)C(F)(F)C(F)(F)C(F)(F)C(F)(F)C(F)(F)C(F)(F)C(F)(F)C(F)(F)C(F)(F)C(F)(F)C(F)(F)F [1-(Perfluorododecyl)-hexadec-1-ene] (APCI source condition: Dry, base ion: [M-H]+) | 18 | 255.25
O=P(OCCCl)(OCCCl)OCCCl [Tris(2-chloroethyl) phosphate] (APCI source condition: Wet, base ion: [M+H]+) | 15.1 | 145.65
Clc1c(Cl)c(Cl)c(-c2c(Cl)c(Cl)c(Cl)c(Cl)c2Cl)c(Cl)c1Cl [PCB 209] (APCI source condition: Dry, base ion: M+.) |  | 179.93
Clc1ccc(Cl)c(-c2c(Cl)cccc2Cl)c1 [PCB 53] (APCI source condition: Dry, base ion: M+.) | 16.6 | 144.4
c1ccc2c(c1)ccc1ccc3ccccc3c12 [Benzo(c)phenanthrene] (APCI source condition: Dry, base ion: M+.) | 21.3 | 140.99
Clc1ccc(Cl)c(Cl)c1Cl [1,2,3,4-Tetrachlorobenzene] (APCI source condition: Dry, base ion: M+.) | 9.99 | 135.67
Cl[C@H]1[C@H](Cl)[C@@H](Cl)[C@H](Cl)[C@@H](Cl)[C@@H]1Cl [β-Hexachlorocyclohexane] (APCI source condition: Dry, base ion: [M-H2Cl3]+) | 15.1 | 138.19
c1cc2ccc3ccc4ccc5cccc6c(c1)c2c3c4c56 [Benzo(g,h,i)perylene] (APCI source condition: Dry, base ion: M+.) | 27.1 | 150.71
Clc1ccc(Cl)c(-c2c(Cl)ccc(Cl)c2Cl)c1Cl [PCB136] (APCI source condition: Dry, base ion: M+.) | 19.4 | 155.08
Brc1cc(Br)c(Br)c(Br)c1Br [Pentabromobenzene] (APCI source condition: Dry, base ion: M+.) | 18.5 | 135.24
Brc1ccc(Oc2cc(Br)c(Br)cc2Br)c(Br)c1 [PBDE 99] (APCI source condition: Dry, base ion: M+.) | 24.2 | 169.31
Brc1cc(Br)c(OCCOc2c(Br)cc(Br)cc2Br)c(Br)c1 [1,2-Bis(2,4,6-tribromophenoxy)ethane] (APCI source condition: Dry, base ion: M+.) | 29 | 186.57
c1ccc2cc3c(cc2c1)-c1cccc2cccc-3c12 [Benzo(k)fluoranthene] (APCI source condition: Dry, base ion: M+.) | 24.2 | 145.45
ClC1=C(Cl)C2(Cl)C3C4CC(C5OC45)C3C1(Cl)C2(Cl)Cl (stereo not drawn) [Endrin] (APCI source condition: Wet, base ion: [M+H]+) | 19.4 | 157.95
